These compounds were tested against T1, human QRFP receptor (GPR103) (Homo sapiens, UniProt Q96P65) (assay: QRFP43-Binding Inhibitory Test). Details: inhibition of specific [125I] QRFP43 binding; membrane sample of CHO-K1 NFAT β-Lactamase cells expressing GPR103; 25° C., 1 hour.
T1 construct: expressed in transfected cells; host or cells: CHO-K1 NFAT β-Lactamase (Aurora); membrane sample
T1 sequence (Q96P65 1-431): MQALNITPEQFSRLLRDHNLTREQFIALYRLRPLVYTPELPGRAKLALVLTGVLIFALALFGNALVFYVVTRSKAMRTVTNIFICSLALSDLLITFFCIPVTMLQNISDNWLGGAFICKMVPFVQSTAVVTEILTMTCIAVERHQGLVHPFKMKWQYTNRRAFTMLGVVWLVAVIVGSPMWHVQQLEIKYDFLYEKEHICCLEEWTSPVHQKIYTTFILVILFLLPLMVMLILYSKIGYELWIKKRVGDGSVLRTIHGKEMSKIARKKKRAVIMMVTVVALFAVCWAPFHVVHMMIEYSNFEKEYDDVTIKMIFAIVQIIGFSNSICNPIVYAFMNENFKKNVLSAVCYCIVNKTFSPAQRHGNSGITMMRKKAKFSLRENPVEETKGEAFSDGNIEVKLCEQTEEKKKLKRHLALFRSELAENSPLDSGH
From the text: A cDNA sequence [Accession No. NM_198179] coding for a human QRFP receptor (GPR103) was cloned in an expression vector pEF1V5-H isB (by Invitrogen). The resulting expression vector was transfected in a host cell CHO-K1 NFAT β-Lactamase (by Aurora), according to a cationic lipid process [see Proceedings of the National Academy of Sciences of the United States of America, Vol. 84, p. 7413, 1987], thereby producing a QRFP receptor (GPR103).
A membrane sample prepared from the cells having expressed a QRFP receptor (GPR103) was incubated in an assay buffer (50 mM Tris-HCl, 1 mM EDTA and 0.1% BSA, pH 7.4) along with a test compound and 20,000 cpm [^125I] QRFP43 (by Perkin Elmer) therein, at 25° C. for 1 hour, and then filtered through a glass filter GF/C. After washed with 50 mM Tris-HCl (containing 2 mM EDTA, 10 mM MgCl2 and 0.04% Tween-20) buffer (pH 7.4), the radioactivity on the glass filter was determined. The non-specific binding was determined in the presence of 1 μM peptide QRFP43, and the 50% inhibitory concentration (IC50) of the test compound to the specific [^125I] QRFP43 binding was computed [see Endocrinology, Vol. 131, p. 2090, 1992].
Work on `Cn1c(C(=O)NCc2ccc3c(c2)CCNC3)cc2ccccc21` [Example 1, 1-Methyl-N-(1,2,3,4-tetrahydroisoquinolin-6-ylmethyl)-1H-indole-2-carboxamide] yielded an IC50 of 61 nM.
For `CN(C)Cc1ccc2c(c1)CCN(C(=O)c1cc3ccccc3n1C)C2` [Example 4, [6-Dimethylaminomethyl-3,4-dihydro-2(1H)isoquinolin-2-yl](1-methyl-1H-indol-2-yl)methanone], the IC50 was 5.8 nM.
In the case of `CCN1CCc2cc(CNC(=O)c3cc4ccccc4n3C)ccc2C1` [Example 2, N-(2-ethyl-1,2,3,4-tetrahydroisoquinolin-6-ylmethyl)-1-methyl-1H-indole-2-carboxamide], the IC50 is reported as 49 nM.
In the case of `CNCc1ccc2c(c1)CCN(C(=O)c1cc3ccccc3n1C)C2` [Example 5, [6-Methylaminomethyl-3,4-dihydro-2(1H)isoquinolin-2-yl](1-methyl-1H-indol-2-yl)methanone], the IC50 is reported as 19 nM.
With `Cn1c(C(=O)N2CCc3cc(CN4CCC4)ccc3C2)cc2ccccc21` [Example 6, [6-(Azetidin-1-ylmethyl)-3,4-dihydro-2(1H)isoquinolin-2-yl](1-methyl-1H-indol-2-yl)methanone] the IC50 was 43 nM.
Work on `Cn1c(C(=O)NCc2ccc3c(c2)CCN(C2CCCC2)C3)cc2ccccc21` [Example 3, N-(2-cyclopentyl-1,2,3,4-tetrahydroisoquinolin-6-ylmethyl)-1-methyl-1H-indole-2-carboxamide] yielded an IC50 of 45 nM.
For `CNCc1ccc2c(c1)CCN(C(=O)c1cc3cc(Cl)ccc3n1C)C2` [Example 8, [6-methylaminomethyl-3,4-dihydro-2(1H)isoquinolin-2-yl](5-chloro-1-methyl-1H-indol-2-yl)methanone], the IC50 was 25 nM.
In the case of `CN(C)Cc1ccc2c(c1)CCN(C(=O)c1cc3cc(Cl)ccc3n1C)C2` [Example 7, [6-Dimethylaminomethyl-3,4-dihydro-2(1H)isoquinolin-2-yl](5-chloro-1-methyl-1H-indol-2-yl)methanone], the IC50 is reported as 6.1 nM.
